Data reported in publication PMC7023391, “Comparison of Various Cell Lines and Three-Dimensional Mucociliary Tissue Model Systems to Estimate Drug Permeability Using an In Vitro Transport Study to Predict Nasal Drug Absorption in Rats” (Pharmaceutics, 2020).
Where two headings read alike, the source gives them in different places.

What was measured:
[1] = system: Caco-2; assay: In vitro transepithelial transport study across Caco-2 monolayers
Description: (§1) Cells of the human colon adenocarcinoma cell line, Caco-2, were grown in Dulbecco’s Modified Eagle Medium (DMEM) supplemented with 10% fetal bovine serum (FBS), 1% L-glutamine, 1% non-essential amino acid, and 0.5% antibiotic–antimycotic solution [20]. Caco-2 cells were harvested with trypsin-EDTA and seeded on polycarbonate filters (pore size: 0.3 μm, growth area: 0.9 cm^2, 12 wells/plate, Beckton Dickinson Bioscience, Bedford, MA, USA) at a density of 1.8 × 10^5 cells/well. The culture medium was changed every 2 days. The monolayer was used for in vitro transport studies, 17–20 days after seeding.
(§2) In transport studies using Caco-2, Calu-3, MDCK, and MucilAir, a transport medium (TM; Hank’s balanced salts solution supplemented with 15 mM glucose and 10 mM HEPES good buffer, pH 7.4) was used. […] The permeability of mannitol across MucilAir was cited from the literature.

[2] = system: Calu-3; assay: In vitro transepithelial transport study across Calu-3 monolayers
Description: (§3) Cells of the human bronchial submucosal gland carcinoma cell line, Calu-3, were grown in DMEM nutrient mixture F-12 HAM supplemented with 10% FBS and 0.5% antibiotic–antimycotic solution [21]. Calu-3 cells were harvested with trypsin-EDTA and seeded on polycarbonate filters (pore size: 0.3 μm, growth area: 0.9 cm^2, 12 wells/plate, Beckton Dickinson Bioscience) at a density of 4.5 × 10^5 cells/well. The culture medium was changed every 2 days. The monolayer was used for in vitro transport studies, 9–10 days after seeding.
as §2

[3] = system: EpiAirway; assay: In vitro transepithelial transport study across EpiAirway tissues
Description: Upon arrival, the primary human tracheal/bronchial epithelial cell system, EpiAirway, and the primary human bronchial epithelial cell system, MucilAir, were transferred to the well filled with 0.9 mL assay medium for EpiAirway and 0.7 mL MucilAir culture medium, which are serum free and contain growth factors and phenol red and are supplemented by default with antibiotics (penicillin/streptomycin). Both tissues were subsequently placed in an incubator with 5% CO2 at 37 °C. Both tissues were cultured in an air–liquid interface condition. EpiAirway tissues were used for the transport study following the overnight equilibration in assay medium. The mucous surface of MucilAir tissues was washed with 0.2 mL culture medium 2 days before the experiment in order to adjust the mucous level of each well. The permeation experiment using EpiAirway and MucilAir was conducted according to the manufacturer’s instructions.
In the transport study using EpiAirway, all the procedures were based on the Drug Delivery Protocol established by MatTek Corporation (https://www.mattek.com/wp-content/uploads/EpiAirway-Drug-Delivery-Protocol.pdf), and carried out in Absorption Systems LP. Dulbecco’s Phosphate Buffered Saline (DPBS) without Ca^2+ and Mg^2+ (pH 7.4) was used as the assay buffer. […] Radioactivity was 2 µCi/mL for the dosed [^3H] inulin and 0.5 µCi/mL for the dosed [^14C] mannitol. […]

[4] = cited from earlier work
[5] = In vitro transepithelial transport study across MDCK monolayers; settings: dog, pH 7.4
Description: as §3, with “The epithelial Mardi–Darby canine kidney” for “Cells of the human bronchial submucosal gland carcinoma”, “line (MDCK) cells” for “line, Calu-3,”, “Modified α-Eagle Medium” for “DMEM nutrient mixture F-12 HAM”, “[13]. MDCK” for “[21]. Calu-3”, “1.8” for “4.5”, “6–7” for “9–10”
as §2

[6] = In vitro transepithelial transport study across MucilAir tissues; settings: human, pH 7.4
[7] = in vitro; settings: human, Caco-2, pH 7.4
Description: as §1, §2

[8] = nasal application to rats, AUCn/AUCiv; mean ± S.E.; determined in this study by the same method as ref 11
Description: Under anesthesia by intraperitoneal sodium pentobarbital (50 mg/kg, Nembutal, Abbott Laboratories, Abbott Park, IL, USA), the right femoral artery was cannulated with polyethylene tubing (SP-31, Natsume, Tokyo, Japan) for the collection of blood samples. […] Blood samples were collected from arterial tubing in heparinized tubes at predetermined time intervals for 120 min. The blood was centrifuged to obtain the plasma.
Under light isoflurane anesthesia, the right femoral artery was cannulated with polyethylene tubing. A drug dissolved in 5 µL of phosphate buffer saline (pH 7.4) was instilled at 1 cm depth from the nostril by microsyringe. Thereafter, animals were kept in a cage (KN-326-III, Natsume, Tokyo, Japan) throughout the experiment. It usually took 5 min after drug instillation for the rat to recover from the anesthesia. Blood samples were collected for 360 min after drug administration. During this period, the animal was allowed free access to water.
Fractional nasal absorption (Fn) was calculated as follows:Fn = AUCn/AUCiv(2) where AUCn and AUCiv are the area under the concentration–time profile following the nasal and intravenous administration of the drug. AUC was calculated according to the trapezoidal rule up to the last sampling point and extrapolation after the last sampling point.

[9] = system: MDCK; set-up: method as in PMID 23200901; settings: [14C] D-mannitol; cited from the previous report; cited from earlier work
[10] = system: MucilAir; set-up: method as in PMID 24216300; settings: [3H] mannitol; cited from the previous report; cited from earlier work
[11] = system: MDCK; assay: in vitro; settings: pH 7.4
Description: as §3, with “The epithelial Mardi–Darby canine kidney” for “Cells of the human bronchial submucosal gland carcinoma”, “line (MDCK) cells” for “line, Calu-3,”, “Modified α-Eagle Medium” for “DMEM nutrient mixture F-12 HAM”, “[13]. MDCK” for “[21]. Calu-3”, “1.8” for “4.5”, “6–7” for “9–10”
as §2

[12] = system: MucilAir; settings: pH 7.4
[13] = apical to basal, 10 µM, pH 7.4, 37 °C, up to 60 min, mean ± S.E. of 3–4 experiments, inulin as [14C] inulin, mannitol as [14C] D-mannitol

## inulin
[1]; [13]
  Permeability (Papp) Caco-2: 0.34 ± 0.20 *^1 ×10^−6cm/s
[2]; [13]
  Permeability (Papp) Calu-3: 0.30 ± 0.09 *^1 ×10^−6cm/s
[3]; apical to basal, 10 µM, DPBS pH 7.4, 37 °C, up to 60 min, mean ± S.E. of 3–4 experiments, inulin as [3H] inulin, mannitol as [14C] D-mannitol
  Permeability (Papp) EpiAirway: 2.83 ± 0.20 *^2 ×10^−6cm/s
[4]; nasal application to rats, AUCn/AUCiv, mean ± S.E., inulin as [14C] inulin, mannitol as [14C] D-mannitol
  Fractional Absorption (Fn): 12.4 ± 2.0 *^1%

## C=C[C@H]1C[N@@]2CC[C@H]1C[C@@H]2[C@@H](O)c1ccnc2ccc(OC)cc12 [Quinidine, quinidine]
[5]
  Papp at 60 min, 10 µM: 11.6 ± 1.31 ×10⁻⁶ cm/s
[6]
  Papp at 60 min, 10 µM: 18.6 ± 1.93 ×10⁻⁶ cm/s

## CN(Cc1cnc2nc(N)nc(N)c2n1)c1ccc(C(=O)N[C@@H](CCC(=O)O)C(=O)O)cc1 [Methotrexate, methotrexate]
[7]
  Papp at 60 min, 10 µM: 0.29 ± 0.02 ×10⁻⁶ cm/s
[5]
  Papp at 60 min, 10 µM: 0.09 ± 0.03 ×10⁻⁶ cm/s
[6]
  Papp at 60 min, 10 µM: 0.31 ± 0.06 ×10⁻⁶ cm/s

## Nc1nc2c(ncn2COCCO)c(=O)[nH]1 [Acyclovir, acyclovir]
[7]
  Papp at 60 min, 10 µM: 1.29 ± 0.28 ×10⁻⁶ cm/s
[5]
  Papp at 60 min, 10 µM: 0.61 ± 0.23 ×10⁻⁶ cm/s
[6]
  Papp at 60 min, 10 µM: 0.48 ± 0.05 ×10⁻⁶ cm/s

## Cc1cc(=O)n(-c2ccccc2)n1C [Antipyrine, antipyrine]
[5]; MDCK
  Papp at 60 min, 10 µM: 32.5 ± 3.71 ×10⁻⁶ cm/s
[8]
  Fractional Absorption (Fn): 96.3 ± 4.2%

## OC[C@@H](O)[C@@H](O)[C@H](O)[C@H](O)CO [Mannitol, mannitol]
[7]
  Papp at 60 min, 10 µM: 0.92 ± 0.15 ×10⁻⁶ cm/s
[9]
  Permeability (Papp) MDCK: 0.18 ± 0.05 *^3,b ×10^−6cm/s
[10]
  Permeability (Papp) MucilAir: 0.2 ± 0.0 *^4,c ×10^−6cm/s
[4]; rat, in vivo
  Fractional Absorption (Fn): 52.9 ± 3.4 *^3%

## Nc1ccc(S(=O)(=O)O)cc1 [Sulfanilic acid, sulfanilic acid]
[1]; Caco-2, pH 7.4
  Permeability (Papp) Caco-2: 0.58 ± 0.14 ×10^−6cm/s
[2]; pH 7.4
  Permeability (Papp) Calu-3: 0.75 ± 0.05 ×10^−6cm/s
[11]
  Permeability (Papp) MDCK: 0.43 ± 0.04 ×10^−6cm/s
[3]; pH 7.4
  Permeability (Papp) EpiAirway: 2.78 ± 0.40 ×10^−6cm/s
[12]
  Permeability (Papp) MucilAir: 0.58 ± 0.15 ×10^−6cm/s
[4]; rat, in vivo
  Fractional Absorption (Fn): 82.7 ± 9.0%
